Measurements taken from ChEMBL document CHEMBL1151706, “Hetero-Diels-Alder reaction of 1,3-bis(trimethylsilyloxy)-1,3-butadienes with arylsulfonylcyanides. Synthesis and antimicrobial activity of 4-hydroxy-2-(arylsulfonyl)pyridines” (2008).
≈ marks a conversion by molar mass, not a printed value. Calls of active or inactive are those of the source. No cut-off for these calls is given here.

Tests used:
Assay type in all cases: functional
Staphylococcus aureus [1] = test: Antibacterial activity against Staphylococcus aureus ATCC 6538 assessed as diameter of the inhibition zone at 1 uM/disk after 4 hrs by disk diffusion method; conditions: for zone of inhibition at 1 µM: ATCC 6538, 4 h, read-out: IZ
Bacillus subtilis [2] = test: Antibacterial activity against Bacillus subtilis ATCC 6051 assessed as diameter of the inhibition zone at 1 uM/disk after 4 hrs by disk diffusion method; conditions: for zone of inhibition at 1 µM: ATCC 6051, 4 h, read-out: IZ
Escherichia coli = test: Antibacterial activity against Escherichia coli ATCC 11229 assessed as diameter of the inhibition zone at 1 uM/disk after 4 hrs by disk diffusion method
Candida maltosa = test: Antifungal activity against Candida maltosa SBUG 700 assessed as diameter of the inhibition zone at 1 uM/disk by disk diffusion method
Bacillus subtilis [3] = test: Antibacterial activity against Bacillus subtilis ATCC 6051 by dilution assay
Staphylococcus aureus [4] = test: Antibacterial activity against Staphylococcus aureus ATCC 6538 by dilution assay

Row | Compound | Activity (Staphylococcus aureus [1]) | zone of inhibition at 1 µM (Bacillus subtilis [2]) [mm] | Activity (Escherichia coli) | Activity (Candida maltosa) | Activity (Bacillus subtilis [2]) | zone of inhibition at 1 µM (Staphylococcus aureus [1]) [mm] | MIC (Bacillus subtilis [3]) [µM] | MIC (Staphylococcus aureus [4]) [µM] | zone of inhibition at 1 µM (Escherichia coli; ATCC 11229, 4 h, read-out: IZ) [mm] | inhibition zone (IZ) (Candida maltosa) [mm] | zone of inhibition at 1 µM (Candida maltosa; read-out: IZ) [mm]
1 | CCOc1nc(S(=O)(=O)c2ccc(C)cc2)cc(O)c1F | inactive | 11 | inactive | inactive |  |  |  |  |  |  | 
2 | COc1cc(O)cc(S(=O)(=O)c2ccccc2)n1 | inactive |  | inactive | inactive | inactive |  |  |  |  |  | 
3 | Cc1ccc(Oc2c(O)cc(S(=O)(=O)c3ccc(C)cc3)nc2C)cc1 |  | 7 | inactive | inactive |  | 8 |  |  |  |  | 
4 | CC1(C)S[C@@H]2[C@H](NC(=O)[C@H](N)c3ccccc3)C(=O)N2[C@H]1C(=O)O [AMPICILLIN] |  | 25 |  |  |  | 27 | 11 (≈ 3.84 µg/mL) | 3 (≈ 1.05 µg/mL) | 19 |  | 
5 | CCOc1cc(O)cc(S(=O)(=O)c2ccccc2)n1 | inactive |  | inactive | inactive | inactive |  |  |  |  |  | 
6 | CCOc1nc(S(=O)(=O)c2ccccc2)cc(O)c1Cl |  | 11 | inactive | inactive |  | 12 | 1590 (≈ 499 µg/mL) | 1590 (≈ 499 µg/mL) |  |  | 
7 | COc1cc(O)cc(S(=O)(=O)c2ccc(C)cc2)n1 |  |  | inactive | inactive | inactive | 10 |  |  |  |  | 
8 | CCOc1nc(S(=O)(=O)c2ccccc2)cc(O)c1Oc1cc(C)cc(C)c1 | inactive |  | inactive | inactive | inactive |  |  |  |  |  | 
9 | NYSTATIN |  |  |  |  |  |  |  |  |  | 28 | 
10 | CCOc1nc(S(=O)(=O)c2ccc(C)cc2)cc(O)c1Cl |  | 10 | inactive |  |  | 13 | 1520 (≈ 498 µg/mL) | 1530 (≈ 502 µg/mL) |  |  | 9
11 | CC(C)Oc1cc(O)cc(S(=O)(=O)c2ccccc2)n1 | inactive |  | inactive | inactive | inactive |  |  |  |  |  | 
12 | Cc1ccc(Sc2c(O)cc(S(=O)(=O)c3ccc(C)cc3)nc2C)cc1 |  | 10 | inactive | inactive |  | 8 | 160 (≈ 61.7 µg/mL) | 320 (≈ 123 µg/mL) |  |  | 
13 | Cc1ccc(S(=O)(=O)c2cc(O)cc(C)n2)cc1 | inactive |  | inactive | inactive | inactive |  |  |  |  |  | 
14 | CCOc1cc(O)cc(S(=O)(=O)c2ccc(C)cc2)n1 | inactive |  | inactive | inactive | inactive |  |  |  |  |  | 
15 | Cc1cccc(Sc2c(O)cc(S(=O)(=O)c3ccccc3)nc2C)c1 |  | 10 | inactive | inactive |  | 13 | 330 (≈ 123 µg/mL) | 670 (≈ 249 µg/mL) |  |  | 
16 | Cc1ccc(S(=O)(=O)c2cc(O)c(Oc3cccc(C)c3)c(C)n2)cc1 | inactive |  | inactive | inactive | inactive |  |  |  |  |  | 
17 | CCc1c(O)cc(S(=O)(=O)c2ccccc2)nc1OC | inactive |  | inactive | inactive | inactive |  |  |  |  |  | 
18 | COc1nc(S(=O)(=O)c2ccccc2)cc(O)c1Sc1ccccc1 | inactive | 10 | inactive | inactive |  |  |  |  |  |  | 
19 | COCCOc1cc(O)cc(S(=O)(=O)c2ccc(C)cc2)n1 | inactive |  | inactive | inactive | inactive |  |  |  |  |  | 
20 | CCOc1nc(S(=O)(=O)c2ccc(C)cc2)cc(O)c1Oc1cc(C)cc(C)c1 |  |  | inactive | inactive | inactive | 8 |  |  |  |  | 
21 | Cc1ccc(S(=O)(=O)c2cc(O)c(Sc3ccccc3)c(C)n2)cc1 | inactive | 10 | inactive | inactive |  |  | 340 (≈ 126 µg/mL) | 670 (≈ 249 µg/mL) |  |  | 
22 | Cc1nc(S(=O)(=O)c2ccccc2)cc(O)c1Sc1ccccc1 |  | 10 | inactive | inactive |  | 9 |  |  |  |  | 
23 | CCOc1nc(S(=O)(=O)c2ccccc2)cc(O)c1F |  | 11 | inactive | inactive |  | 12 | 1680 (≈ 499 µg/mL) | 3360 (≈ 999 µg/mL) |  |  | 
24 | COCc1cc(O)cc(S(=O)(=O)c2ccc(C)cc2)n1 | inactive |  | inactive | inactive | inactive |  |  |  |  |  | 
